The source of these data is ChEMBL document CHEMBL1201862, “PubChem BioAssay data set” (2004).

Some test systems named below: SN12C; BT-549; SK-OV-3; SNB-19; Hs-578T; T47D; MDA-MB-231; HOP-92; HOP-62; TK-10; RPMI-8226; MDA-N; LOX IMVI; DU-145; 786-0.
Assay in all cases: growth of human tumour cells (NCI), 48 h

Each structure is given as a SMILES string.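 96-well plates; 48 h exposure; 5 concentrations. Endpoints by linear interpolation between flanking doses. Not reached: highest tested concentration assigned. GI50 is the concentration that inhibits growth by half.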 Calls of active or inactive are those of the source. Cut-off read from the data, not from the text of the source: active = GI50 up to about 1.1 µM and inactive = higher. A value given as a limit tells only on which side of the number the result lay.

Take `CCOC(=O)c1c(Cl)nc2ccccc2c1N=[N+]=[N-]`: the GI50 in the experiment with SN12C was 16.8 µM (inactive); with BT-549, 16.4 µM (inactive); in the experiment on SK-OV-3, 70.5 µM (inactive); in the experiment on SNB-19 it was > 100 µM (inactive); in the experiment on Hs-578T it was 24.9 µM (inactive); with T47D it was 22.7 µM (inactive). Moreover, the GI50 with MDA-MB-231 was 16.2 µM (inactive); in the experiment on HOP-92, 24.7 µM (inactive); in the experiment with HOP-62, 49.3 µM (inactive); in the experiment on TK-10, 31.9 µM (inactive); in the experiment with RPMI-8226 it was 43.5 µM (inactive); in the experiment with MDA-N, 21 µM (inactive). Further, the GI50 with LOX IMVI is 20.5 µM (inactive).

With `N#Cc1c(N2CCCC2)ncn(-c2ccccc2)c1=S`, the GI50 in the experiment with DU-145, in the experiment on SN12C, in the experiment with BT-549, in the experiment on SK-OV-3, with SNB-19 and in the experiment on Hs-578T was > 100 µM (inactive) throughout. The GI50 in the experiment on T47D, in the experiment with MDA-MB-231, in the experiment with HOP-92, with HOP-62, in the experiment on TK-10 and with RPMI-8226 was > 100 µM (inactive) throughout. The GI50 in the experiment with MDA-N, in the experiment on LOX IMVI and with 786-0 was > 100 µM (inactive) in each case.

For `O=C(Nc1nccs1)c1c(O)nc2sccn2c1=O`, the GI50 in the experiment on DU-145, with SN12C, in the experiment with SK-OV-3, with SNB-19, in the experiment on Hs-578T and in the experiment on T47D was > 10 µM (inactive) in each case. The GI50 in the experiment with MDA-MB-231, in the experiment on HOP-62, with TK-10, in the experiment with RPMI-8226, in the experiment on MDA-N and in the experiment with LOX IMVI was > 10 µM (inactive) throughout.

Consider `C[Si](C)(N[Si](C)(C)OCCc1ccccc1)OCCc1ccccc1`, for which the GI50 with DU-145, in the experiment on SN12C, in the experiment on BT-549, with SK-OV-3, in the experiment on SNB-19 and with T47D was > 100 µM (inactive) each time. The GI50 in the experiment with HOP-92, in the experiment on HOP-62, in the experiment on TK-10, in the experiment on RPMI-8226, in the experiment on MDA-N and in the experiment with LOX IMVI was > 100 µM (inactive) throughout. Also, the GI50 with 786-0 was > 100 µM (inactive).

For `CC(Cc1ccccc1)NC1=NCCO1` (stereo not given), the GI50 in the experiment with SN12C is 21.8 µM (inactive); in the experiment on SK-OV-3, > 100 µM (inactive); in the experiment with SNB-19, 35.6 µM (inactive); with Hs-578T, 29.3 µM (inactive); with T47D, 35.1 µM (inactive); with MDA-MB-231, 16.2 µM (inactive). Moreover, the GI50 in the experiment with HOP-92 is 26.9 µM (inactive); in the experiment on HOP-62, 84.1 µM (inactive); in the experiment with RPMI-8226, 37.8 µM (inactive); in the experiment on MDA-N, 25.9 µM (inactive); in the experiment on LOX IMVI, 18.2 µM (inactive).

As for `CC(=O)c1ccc(NC(=O)/C(CC(=O)/C=C/c2ccccc2)=N/NC(N)=S)cc1`, the GI50 in the experiment on SN12C was > 100 µM (inactive); in the experiment with BT-549, > 100 µM (inactive); with SK-OV-3, > 100 µM (inactive); in the experiment on Hs-578T, > 100 µM (inactive); in the experiment with T47D, 32.6 µM (inactive); in the experiment with MDA-MB-231 it was > 100 µM (inactive). Besides, the GI50 is > 100 µM (inactive) in the experiment on HOP-92; > 100 µM (inactive) in the experiment with HOP-62; > 100 µM (inactive) in the experiment with TK-10; 69.3 µM (inactive) in the experiment with RPMI-8226; > 100 µM (inactive) with MDA-N; > 100 µM (inactive) with LOX IMVI. Further, the GI50 in the experiment with 786-0 was > 100 µM (inactive).

In the case of `CCN1CCC(O)(c2ccc(O)cc2)C(C(=O)c2ccc(O)cc2)C1` (stereo not given), the GI50 in the experiment on DU-145 is 27.6 µM (inactive); with SN12C, 22.3 µM (inactive); with SK-OV-3, > 100 µM (inactive); with SNB-19 it was > 100 µM (inactive); in the experiment on Hs-578T it was 13.3 µM (inactive); with T47D it was 8.77 µM (inactive). The GI50 was 16.3 µM (inactive) in the experiment on MDA-MB-231; 19.7 µM (inactive) in the experiment on HOP-92; > 100 µM (inactive) in the experiment on HOP-62; 17.3 µM (inactive) with TK-10; 3.21 µM (inactive) in the experiment on RPMI-8226; 12.5 µM (inactive) in the experiment with LOX IMVI.

For `COc1oc(C2C/C(=C/C(C)=C/C(C)=C/C(C)=C/c3ccc([N+](=O)[O-])cc3)CO2)c(C)c(=O)c1C` (stereo not given), the GI50 in the experiment with DU-145 is 8.2 µM (inactive); with SN12C, 2.57 µM (inactive); in the experiment on BT-549 it was 2.73 µM (inactive); with SK-OV-3, 12.9 µM (inactive); in the experiment with SNB-19, 15.9 µM (inactive); in the experiment with Hs-578T, 5.89 µM (inactive). Moreover, the GI50 in the experiment on T47D is 1.04 µM (active); with MDA-MB-231 it was 15.8 µM (inactive); in the experiment on HOP-92 it was 6.95 µM (inactive); in the experiment on HOP-62 it was 19.9 µM (inactive); with TK-10 it was 10 µM (inactive); with RPMI-8226, 0.55 µM (active). Besides, the figures for the GI50 with MDA-N, in the experiment on LOX IMVI and in the experiment on 786-0 were 2.74 µM (inactive), 4.02 µM (inactive) and 5.64 µM (inactive), respectively.

As for `O=C(C1=C(C(=O)c2ccccc2)SC2(S1)C(C(=O)c1ccccc1)=C(C(=O)c1ccccc1)Sc1c2ssc1=O)c1ccccc1`, the GI50 was 72.8 µM (inactive) in the experiment on DU-145; 26.7 µM (inactive) in the experiment with SN12C; 80.4 µM (inactive) with BT-549; 49.3 µM (inactive) in the experiment on SK-OV-3; 24.6 µM (inactive) in the experiment with SNB-19; > 100 µM (inactive) in the experiment on Hs-578T. Also, the GI50 with T47D was 97.7 µM (inactive); in the experiment with MDA-MB-231 it was 78.9 µM (inactive); in the experiment on HOP-92, > 100 µM (inactive); with HOP-62, > 100 µM (inactive); with TK-10, 70.1 µM (inactive); in the experiment on MDA-N, 41.1 µM (inactive). In addition, the GI50 was > 100 µM (inactive) in the experiment on LOX IMVI and 31.1 µM (inactive) in the experiment with 786-0.

With `Nc1ccc(S(=O)(=O)c2ccc(NCN3C(=O)NC(=O)C(=O)C3=O)cc2)cc1` [ALLANTODAPSONE], the GI50 with SN12C, with BT-549, in the experiment with SNB-19, in the experiment with Hs-578T, in the experiment with T47D and with MDA-MB-231 was > 100 µM (inactive) each time. The GI50 with HOP-92, in the experiment on HOP-62, in the experiment with TK-10, in the experiment with MDA-N, in the experiment on LOX IMVI and in the experiment on 786-0 was > 100 µM (inactive) throughout.

In the case of `CC[n+]1c(-c2ccccc2)c2cc(N)ccc2c2ccc(N)cc21` [HOMIDIUM BROMIDE], the GI50 was 7.57 µM (inactive) in the experiment on DU-145; 3.24 µM (inactive) in the experiment with SN12C; 1.14 µM (inactive) in the experiment on BT-549; 3.52 µM (inactive) with SK-OV-3; < 0.01 µM (active) with Hs-578T; 1.93 µM (inactive) with T47D. Besides, the GI50 is 8.55 µM (inactive) in the experiment with MDA-MB-231, 2.24 µM (inactive) with HOP-92, 8.36 µM (inactive) with TK-10 and 4.2 µM (inactive) with MDA-N.
